Consider 40 molecules from EP1976513B1 (priority 2006, dated 2007).

Where two headings read alike, the source gives them in different places.

The target of test [1] is T1, human dopamine reuptake transporter (Homo sapiens, UniProt Q01959).
T1 construct: expressed in transfected cells; host or cells: CHO-K1 or HEK293
The test is described as follows: cell-based.

Test [2] deals with human serotonin reuptake transporter (Homo sapiens, UniProt P31645). Kind of test: cell-based.
Where [3] appears, read: recombinant human dopamine transporter (DAT), read-out: Human IC50 (nM) hDAT.
Where [4] appears, read: recombinant human serotonin transporter (SERT), read-out: Human IC50 (nM) hSERT.
Setting [5] is: Human IC50 (nM) hSERT, recombinant human serotonin transporter (SERT).

By IC50 is commonly meant the midpoint of a concentration-inhibition curve.

T1 sequence (Q01959 whole entry): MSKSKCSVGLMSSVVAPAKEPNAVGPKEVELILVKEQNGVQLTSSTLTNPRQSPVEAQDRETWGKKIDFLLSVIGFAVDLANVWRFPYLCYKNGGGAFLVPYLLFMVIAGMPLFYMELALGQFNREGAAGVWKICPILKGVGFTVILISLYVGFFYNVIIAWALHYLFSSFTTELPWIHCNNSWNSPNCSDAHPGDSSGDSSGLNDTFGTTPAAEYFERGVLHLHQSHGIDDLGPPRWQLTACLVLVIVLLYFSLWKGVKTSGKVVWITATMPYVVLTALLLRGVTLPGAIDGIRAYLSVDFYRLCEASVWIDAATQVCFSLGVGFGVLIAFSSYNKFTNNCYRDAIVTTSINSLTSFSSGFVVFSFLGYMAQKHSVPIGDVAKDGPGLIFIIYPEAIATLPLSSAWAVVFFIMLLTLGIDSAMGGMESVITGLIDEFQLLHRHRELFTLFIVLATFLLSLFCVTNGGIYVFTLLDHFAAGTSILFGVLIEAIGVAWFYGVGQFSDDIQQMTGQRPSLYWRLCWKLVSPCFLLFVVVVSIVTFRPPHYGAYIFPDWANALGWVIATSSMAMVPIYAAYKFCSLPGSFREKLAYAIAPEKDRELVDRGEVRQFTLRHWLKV
human serotonin reuptake transporter, sequence (P31645 whole entry): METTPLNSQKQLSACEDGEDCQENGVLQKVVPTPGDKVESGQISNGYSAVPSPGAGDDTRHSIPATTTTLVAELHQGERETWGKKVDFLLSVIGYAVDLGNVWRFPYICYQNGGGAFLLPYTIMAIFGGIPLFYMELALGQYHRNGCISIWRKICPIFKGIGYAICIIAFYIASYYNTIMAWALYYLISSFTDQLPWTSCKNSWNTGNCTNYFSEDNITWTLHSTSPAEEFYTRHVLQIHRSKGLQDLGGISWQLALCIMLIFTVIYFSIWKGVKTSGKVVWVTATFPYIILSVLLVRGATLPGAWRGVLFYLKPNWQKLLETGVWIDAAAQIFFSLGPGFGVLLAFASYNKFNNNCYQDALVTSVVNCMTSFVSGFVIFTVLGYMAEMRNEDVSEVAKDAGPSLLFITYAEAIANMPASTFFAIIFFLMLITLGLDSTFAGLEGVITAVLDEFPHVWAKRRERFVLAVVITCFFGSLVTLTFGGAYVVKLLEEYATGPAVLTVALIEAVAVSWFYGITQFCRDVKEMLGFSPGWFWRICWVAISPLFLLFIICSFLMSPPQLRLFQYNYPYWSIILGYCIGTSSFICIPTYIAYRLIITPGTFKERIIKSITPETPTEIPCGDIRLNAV

Consider `OC1Cc2ccccc2C1NCC1(c2ccc(Cl)c(Cl)c2)CCCCC1` (racemic) [Compound 113, 1-((1-(3,4-dichlorophenyl)cyclohexyl)methylamino)-2,3-dihydro-1H-inden-2-ol], for which the concentration for half-maximal inhibition (IC50) in test [1] (setting [3]) was determined as 285 nM; in test [2] (setting [4]), 2570 nM.
Take `CC1CCCN(CC2(c3ccc(Cl)c(Cl)c3)CCCCC2)C1` (racemic) [Compound 114, 1-((1-(3,4-dichlorophenyl)cyclohexyl)methyl)-3-methylpiperidine]: the concentration for half-maximal inhibition (IC50) was 16 nM in test [1] (setting [3]) and above 10000 nM in test [2] (Human IC50 (nM) hSERT).
With `CC1CCCN1CC1(c2ccc(Cl)c(Cl)c2)CCCCC1` (racemic) [Compound 115, 1-((1-(3,4-dichlorophenyl)cyclohexyl)methyl)-2-methylpyrrolidine], the values for the half-inhibitory concentration (IC50) in test [1] (setting [3]) and in test [2] (Human IC50 (nM) hSERT) were below 1 nM and above 10000 nM, respectively.
In the case of `OC1CCCCC1NCC1(c2ccc(Cl)c(Cl)c2)CCCCC1` (racemic) [Compound 117, 2-((1-(3,4-dichlorophenyl)cyclohexyl)methylamino)cyclohexanol], the half-inhibitory concentration (IC50) in test [1] (setting [3]) was determined as 33 nM; in test [2] (setting [4]), 7900 nM.
On the same counts, the results for `NCC1(c2ccc3ccccc3c2)CC=CCC1` (racemic) [Compound 291, (1-(naphthalen-2-yl)cyclohex-3-enyl)methanamine] are 72 nM and 185 nM.
Turning to `CNCC1(c2ccc3ccccc3c2)CC=CCC1` (racemic) [Compound 292, N-methyl-1-(1-(naphthalen-2-yl)cyclohex-3-enyl)methanamine], the IC50 in test [1] (Human IC50 (nM) hDAT) stood at 89 nM; in test [2] (read-out: Human IC50 (nM) hSERT), 360 nM.
For `CNC(=O)[C@]1(c2ccc3ccccc3c2)CCCC[C@H]1O` (relative stereo) [Compound 301, trans-2-hydroxy-N-methyl-1-(naphthalen-2-yl)cyclohexanecarboxamide], the IC50 in test [1] (setting [3]) was 8780 nM; in test [2] (setting [4]), above 10000 nM.
`CC(N)C1(c2ccc(-c3ccoc3)cc2)CCCCC1` (single isomer, unassigned) [20 E1, 1-(1-(4-(furan-3-yl)phenyl)cyclohexyl)ethanamine]: the IC50 in test [1] (setting [3]) amounted to 369 nM; in test [2] (setting [4]) it was 40 nM.
For the molecule `CC(N)C1(c2ccc(-c3ccoc3)cc2)CCCCC1` (single isomer, unassigned) [20 E2, 1-(1-(4-(furan-3-yl)phenyl)cyclohexyl)ethanamine], the values for the IC50 in test [1] (setting [3]) and in test [2] (setting [4]) were 437 nM and 60 nM, respectively.
As to `CC(N(C)C)C1(c2cccc3ccccc23)CCCCC1` (single isomer, unassigned) [60 E1, N,N-dimethyl-1-(1-(naphthalen-1-yl)cyclohexyl)ethanamine], the IC50 in test [1] (setting [3]) was 748 nM; in test [2] (setting [4]) it was 184 nM.
For `CC(N(C)C)C1(c2cccc3ccccc23)CCCCC1` (single isomer, unassigned) [60 E2, N,N-dimethyl-1-(1-(naphthalen-1-yl)cyclohexyl)ethanamine], in that order: 6740 nM and 4630 nM.
On to `CCC(N(C)C)C1(c2ccc(Cl)c(Cl)c2)CCCCC1` (single isomer, unassigned) [61 E1, 1-(1-(3,4-dichlorophenyl)cyclohexyl)-N,N-dimethylpropan-1-amine], for which the IC50 worked out at 959 nM in test [1] (setting [3]) and 5950 nM in test [2] (setting [5]).
For `CCC(N(C)C)C1(c2ccc(Cl)c(Cl)c2)CCCCC1` (single isomer, unassigned) [61 E2, 1-(1-(3,4-dichlorophenyl)cyclohexyl)-N,N-dimethylpropan-1-amine], in that order: 116 nM and 9440 nM.
In the case of `CC(N(C)C)C1(c2ccc(OC(F)(F)F)cc2)CCCCC1` (single isomer, unassigned) [63 E1, N,N-dimethyl-1-(1-(4-(trifluoromethoxy)phenyl)cyclohexyl)ethanamine], the IC50 in test [1] (setting [3]) was determined as 6540 nM; in test [2] (setting [4]), 194 nM.
On the same counts, the results for `CC(N(C)C)C1(c2ccc(OC(F)(F)F)cc2)CCCCC1` (single isomer, unassigned) [63 E2, N,N-dimethyl-1-(1-(4-(trifluoromethoxy)phenyl)cyclohexyl)ethanamine] are 1820 nM and 2 nM.
Consider `CNC(C)C1(c2ccc(OC(F)(F)F)cc2)CCCCC1` (single isomer, unassigned) [64 E1, N-methyl-1-(1-(4-(trifluoromethoxy)phenyl)cyclohexyl)ethanamine], for which the IC50 in test [1] (Human IC50 (nM) hDAT) is above 10000 nM; in test [2] (setting [4]), 58 nM.
For `CNC(C)C1(c2ccc(OC(F)(F)F)cc2)CCCCC1` (single isomer, unassigned) [64 E2, N-methyl-1-(1-(4-(trifluoromethoxy)phenyl)cyclohexyl)ethanamine], in that order: 3640 nM and 32 nM.
In the case of `CNCC1(c2ccc(OC)cc2)CCCCC1O` (single isomer, unassigned) [139 E1, cis-2-((methylamino)methyl)-2-(4-methoxyphenyl)cyclohexanol], the half-inhibitory concentration (IC50) in test [1] (setting [3]) and in test [2] (setting [4]) was above 10000 nM throughout.
As to `CNCC1(c2ccc(OC)cc2)CCCCC1O` (single isomer, unassigned) [139 E2, cis-2-((methylamino)methyl)-2-(4-methoxyphenyl)cyclohexanol], the IC50 in test [1] (setting [3]) and in test [2] (setting [4]) was above 10000 nM throughout.
For the molecule `CNCC1(c2ccc(OC(F)(F)F)cc2)CCCCC1O` (single isomer, unassigned) [146 E2, trans-2-((Methylamino)methyl)-2-(4-(trifluoromethoxy)phenyl) cyclohexanol], the IC50 in test [1] (setting [3]) is above 10000 nM.
The same measure, in the same setting: for `COc1ccc(C2(CN(C)C)CCCCC2O)cc1` (single isomer, unassigned) [155 E1, Cis-2-((dimethylamino)methyl)-2-(4-methoxyphenyl)cyclohexanol] the value was above 10000 nM.
The same measure, in the same setting: the same measure for `COc1ccc(C2(CN(C)C)CCCCC2O)cc1` (single isomer, unassigned) [155 E2, Cis-2-((dimethylamino)methyl)-2-(4-methoxyphenyl)cyclohexanol]: above 10000 nM.
On to `CC1(O)CCCC(CN)(c2ccc(Cl)c(Cl)c2)C1` (single isomer, unassigned) [193 E1, 3-Aminomethyl-3-(3,4-dichloro-phenyl)-1-methyl-cyclohexanol], for which the results for the IC50 in test [1] (setting [3]) and in test [2] (setting [4]) were 266 nM and 416 nM, respectively.
For `CC1(O)CCCC(CN)(c2ccc(Cl)c(Cl)c2)C1` (single isomer, unassigned) [193 E2, 3-Aminomethyl-3-(3,4-dichloro-phenyl)-1-methyl-cyclohexanol], in that order: 3160 nM and 957 nM.
On the same counts, the results for `COC1CCCC(CN)(c2ccc(Cl)c(Cl)c2)C1` (single isomer, unassigned) [195 E2] are 5320 nM and 45 nM.
In the case of `CN(C)CC1(c2ccc(Cl)c(Cl)c2)CCCC(F)(F)C1` (single isomer, unassigned) [206 E1, 1-(1-(3,4-dichlorophenyl)-3,3-difluorocyclohexyl)-N,N-dimethylmethanamine], the IC50 in test [1] (setting [3]) was determined as 59 nM.
On the same count and under the same terms, the same measure for `CN(C)CC1(c2ccc(Cl)c(Cl)c2)CCCC(F)(F)C1` (single isomer, unassigned) [206 E2, 1-(1-(3,4-dichlorophenyl)-3,3-difluorocyclohexyl)-N,N-dimethylmethanamine]: below 1 nM.
`CNC(C)C1(c2ccc3ccccc3c2)CCC(C)(O)CC1` (single isomer, unassigned) [231 E1, 1-methyl-4-(1-(methylamino)ethyl)-4-(naphthalen-2-yl)cyclohexanol]: the values for the IC50 in test [1] (setting [3]) and in test [2] (setting [4]) were 460 nM and 1280 nM, respectively.
For `CNC(C)C1(c2ccc3ccccc3c2)CCC(C)(O)CC1` (single isomer, unassigned) [231 E2, 1-methyl-4-(1-(methylamino)ethyl)-4-(naphthalen-2-yl)cyclohexanol], in that order: 83 nM and 63 nM.
Consider `CC(N(C)C)C1(c2ccc3ccccc3c2)CCC(C)(O)CC1` (single isomer, unassigned) [234 E1, 4-(1-(dimethylamino)ethyl)-1-methyl-4-(naphthalen-2-yl)cyclohexanol], for which the 50% inhibitory concentration (IC50) in test [1] (setting [3]) was found to be 346 nM; in test [2] (setting [4]) it was 3380 nM.
`NCC1(c2ccc(F)c(Cl)c2)CCCCC1` [Compound 32, (1-(3-chloro-4-fluorophenyl)cyclohexyl)-methanamine]: the IC50 in test [1] (setting [3]) came out at 424 nM.
The molecule `NCC1(c2ccc(Cl)c(Cl)c2)CC=CCC1` (centres unmarked) [Compound 71] gave an IC50 in test [1] (Human IC50 (nM) hDAT) of 123 nM.
On to `CNCC1(c2ccc3ccccc3c2)CCC(O)CC1` (centres unmarked) [Compound 227, 4-((methylamino)methyl)-4-(naphthalen-2-yl)cyclohexanol], for which the concentration for half-maximal inhibition (IC50) in test [1] (setting [3]) was found to be 5780 nM.
Regarding `CNCC1(c2ccc3ccccc3c2)CCC(F)CC1` (centres unmarked) [Compound 232, 1-(4-fluoro-1-(naphthalen-2-yl)cyclohexyl)-N-methylmethanamine], the IC50 in test [1] (setting [3]) amounted to 25 nM.
For the molecule `CNCC1(c2ccc3ccccc3c2)CCC(F)CC1` (centres unmarked) [Compound 236, 1-(4-fluoro-1-(naphthalen-2-yl)cyclohexyl)-N-methylmethanamine], in test [1] (setting [3]), the 50% inhibitory concentration (IC50) amounted to 444 nM.
Still for that read-out and setting: the same measure for `NCC1(c2ccc(Cl)c(Cl)c2)CCC(F)CC1` (centres unmarked) [Compound 253, (1-(3,4-dichlorophenyl)-4-fluorocyclohexyl)methanamine]: 37 nM; for `NCC1(c2ccc(Cl)c(Cl)c2)CCC(F)CC1` (centres unmarked) [Compound 260, (1-(3,4-dichlorophenyl)-4-fluorocyclohexyl)methanamine]: 306 nM; for `CCC1(O)CCC(CNC)(c2ccc(Cl)c(Cl)c2)CC1` (centres unmarked) [Compound 279, 4-(3,4-dichlorophenyl)-1-ethyl-4-((methylamino)methyl)cyclohexanol]: 1450 nM.
Same read-out and setting: for `CCC1(O)CCC(CNC)(c2ccc(Cl)c(Cl)c2)CC1` (centres unmarked) [Compound 282, 4-(3,4-dichlorophenyl)-1-ethyl-4-((methylamino)methyl)cyclohexanol] the value was 186 nM; for `NC[C@]1(c2ccc(Cl)c(Cl)c2)CC[C@H](O)CC1` [Compound 299, (1s,4s)-4-(aminomethyl)-4-(3,4-dichlorophenyl)cyclohexanol], 720 nM.
